Literature values, collected in US6756057B2, “Amoxicillin and potassium clavulanate dosage form” (Beecham Pharmaceuticals (pte) Limited, priority 2000, dated 2004).

Settings: in vivo

elimination half-life: about 1.3 hours
Structure (SMILES): CC1(C)S[C@@H]2[C@H](NC(=O)[C@H](N)c3ccc(O)cc3)C(=O)N2[C@H]1C(=O)O [amoxicillin]
